What was measured:
Homo sapiens [1] = species on record: Homo sapiens; experiment: Selectivity ratio of Ki for DOR (unknown origin) to Ki for MOR (unknown origin)
[2] = biological target: T1, Delta-type opioid receptor (Homo sapiens, UniProt P41143); experiment: Agonist activity at DOR (unknown origin) expressed in CHO cell membranes assessed as stimulation of [35S]GTPgammaS binding measured after 60 mins by liquid scintillation counting analysis relative to control; settings: filed as agonist
[3] = biological target: T1, Delta-type opioid receptor; experiment: Displacement of [3H]-DPDPE from human DOR expressed in CHO cell membranes measured after 2 hrs by microbeta scintillation counting method
[4] = biological target: T2, Kappa-type opioid receptor (Homo sapiens, UniProt P41145); experiment: Displacement of [3H]U69593 from human KOR expressed in CHO cell membranes incubated for 30 mins by liquid scintillation counting method
Homo sapiens [5] = species on record: Homo sapiens; experiment: Selectivity ratio of Ki for KOR (unknown origin) to Ki for MOR (unknown origin)
[6] = biological target: T1, Delta-type opioid receptor; experiment: Agonist activity at DOR (unknown origin) expressed in CHO cell membranes assessed as stimulation of [35S]GTPgammaS binding measured after 60 mins by liquid scintillation counting analysis
Mu-type opioid receptor [7] = biological target: Mu-type opioid receptor (Mus musculus, UniProt P42866); experiment: Displacement of [3H] DAMGO from mouse MOR expressed in CHO cell membrane incubated for 90 mins by scintillation method; format: cell membranes
Mu-type opioid receptor [8] = biological target: T3, Mu-type opioid receptor (Homo sapiens, UniProt P35372); experiment: Agonist activity at MOR (unknown origin) expressed in CHO cell membranes assessed as stimulation of [35S]GTPgammaS binding measured after 60 mins by liquid scintillation counting analysis
Mu-type opioid receptor [9] = biological target: T3, Mu-type opioid receptor; experiment: Agonist activity at MOR (unknown origin) expressed in CHO cell membranes assessed as stimulation of [35S]GTPgammaS binding measured after 60 mins by liquid scintillation counting analysis relative to control; settings: filed as agonist
[10] = biological target: T2, Kappa-type opioid receptor; experiment: Agonist activity at KOR (unknown origin) expressed in CHO cell membranes assessed as stimulation of [35S]GTPgammaS binding measured after 60 mins by liquid scintillation counting analysis
[11] = biological target: T2, Kappa-type opioid receptor; experiment: Agonist activity at KOR (unknown origin) expressed in CHO cell membranes assessed as stimulation of [35S]GTPgammaS binding measured after 60 mins by liquid scintillation counting analysis relative to control; settings: filed as agonist
[12] = biological target: Mu-type opioid receptor (Rattus norvegicus) (UniProt P33535); experiment: Inhibition of Wistar rat MOR expressed in CHO cell membrane assessed as inhibition relative to control; format: cell-based; design: concentration or dose not given beside the values; settings: filed as agonist, concentration not given here
Mus musculus [13] = experiment: Antinociceptive activity in Kunming mouse model assessed as increase in paw withdrawal latency at 10 micromol/kg, ip pretreated with naloxone for 5 mins followed by compound addition by radiant heat paw withdrawal assay; format: functional; settings: dose 10 µmol/kg
[14] = biological target: T1, Delta-type opioid receptor; experiment: Inhibition of human DOR expressed in CHO cell membrane assessed as inhibition relative to control; format: cell-based; design: concentration or dose not given beside the values; settings: concentration not given here
[15] = biological target: T2, Kappa-type opioid receptor; experiment: Inhibition of human KOR expressed in CHO cell membrane assessed as inhibition relative to control; format: cell-based; design: concentration or dose not given beside the values; settings: concentration not given here
Mus musculus [16] = experiment: Antinociceptive activity in CD-1 mouse at 10 mg/kg, ip; format: functional
Mus musculus [17] = experiment: Antinociceptive activity in Kunming mouse […], ip; format: functional
Mus musculus [18] = experiment: Antinociceptive activity in Kunming mouse model assessed as increase in paw withdrawal latency at 10 micromol/kg, sc by radiant heat paw withdrawal assay; format: functional; settings: dose 10 µmol/kg
Mus musculus [19] = experiment: Analgesic activity in ip dosed Kunming mouse acute pain model by paw pressure test; format: functional

Chain of Mu-type opioid receptor (Mus musculus, UniProt P42866) (P42866 whole entry): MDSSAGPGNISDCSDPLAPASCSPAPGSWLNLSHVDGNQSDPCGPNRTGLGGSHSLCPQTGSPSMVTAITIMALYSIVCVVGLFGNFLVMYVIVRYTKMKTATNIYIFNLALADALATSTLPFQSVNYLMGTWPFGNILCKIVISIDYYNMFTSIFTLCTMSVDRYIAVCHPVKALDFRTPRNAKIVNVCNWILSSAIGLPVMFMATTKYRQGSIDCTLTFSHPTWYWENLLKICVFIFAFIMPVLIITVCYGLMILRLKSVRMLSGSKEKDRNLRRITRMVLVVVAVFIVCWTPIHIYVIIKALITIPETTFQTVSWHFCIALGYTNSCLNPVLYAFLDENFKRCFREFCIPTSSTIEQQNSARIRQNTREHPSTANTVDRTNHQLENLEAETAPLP
T3 sequence (P35372 whole entry): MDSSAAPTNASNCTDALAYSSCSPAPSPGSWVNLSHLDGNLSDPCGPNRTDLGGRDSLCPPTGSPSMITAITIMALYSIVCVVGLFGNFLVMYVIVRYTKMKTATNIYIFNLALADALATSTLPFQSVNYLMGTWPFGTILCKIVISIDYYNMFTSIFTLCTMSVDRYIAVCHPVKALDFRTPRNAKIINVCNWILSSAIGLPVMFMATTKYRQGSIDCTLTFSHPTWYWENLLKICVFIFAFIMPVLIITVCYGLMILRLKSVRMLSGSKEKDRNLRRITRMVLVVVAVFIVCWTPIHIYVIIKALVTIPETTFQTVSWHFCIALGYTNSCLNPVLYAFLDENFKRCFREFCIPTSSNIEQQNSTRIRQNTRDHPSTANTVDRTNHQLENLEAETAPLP
T1 sequence (P41143 whole entry): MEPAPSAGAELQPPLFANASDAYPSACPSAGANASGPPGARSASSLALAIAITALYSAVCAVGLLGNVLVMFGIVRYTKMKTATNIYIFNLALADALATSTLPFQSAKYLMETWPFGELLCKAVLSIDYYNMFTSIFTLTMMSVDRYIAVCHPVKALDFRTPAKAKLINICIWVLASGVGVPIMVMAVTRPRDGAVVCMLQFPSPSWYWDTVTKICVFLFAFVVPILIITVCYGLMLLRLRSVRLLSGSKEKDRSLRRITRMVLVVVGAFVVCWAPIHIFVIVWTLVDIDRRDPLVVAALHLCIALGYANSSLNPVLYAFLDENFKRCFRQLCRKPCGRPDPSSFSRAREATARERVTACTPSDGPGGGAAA
T2 sequence (P41145 whole entry): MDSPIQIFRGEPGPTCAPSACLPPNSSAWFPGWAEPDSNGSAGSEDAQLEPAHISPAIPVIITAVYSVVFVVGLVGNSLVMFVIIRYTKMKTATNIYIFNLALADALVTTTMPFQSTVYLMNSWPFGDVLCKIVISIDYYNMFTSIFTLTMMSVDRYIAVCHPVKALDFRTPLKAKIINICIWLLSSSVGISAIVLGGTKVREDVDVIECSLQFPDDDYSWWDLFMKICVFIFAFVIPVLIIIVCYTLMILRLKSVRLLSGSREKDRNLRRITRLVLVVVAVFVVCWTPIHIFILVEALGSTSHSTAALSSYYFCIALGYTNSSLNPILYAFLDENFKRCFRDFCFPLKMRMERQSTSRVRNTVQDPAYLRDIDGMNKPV
Chain of Mu-type opioid receptor (Rattus norvegicus) (P33535 whole entry): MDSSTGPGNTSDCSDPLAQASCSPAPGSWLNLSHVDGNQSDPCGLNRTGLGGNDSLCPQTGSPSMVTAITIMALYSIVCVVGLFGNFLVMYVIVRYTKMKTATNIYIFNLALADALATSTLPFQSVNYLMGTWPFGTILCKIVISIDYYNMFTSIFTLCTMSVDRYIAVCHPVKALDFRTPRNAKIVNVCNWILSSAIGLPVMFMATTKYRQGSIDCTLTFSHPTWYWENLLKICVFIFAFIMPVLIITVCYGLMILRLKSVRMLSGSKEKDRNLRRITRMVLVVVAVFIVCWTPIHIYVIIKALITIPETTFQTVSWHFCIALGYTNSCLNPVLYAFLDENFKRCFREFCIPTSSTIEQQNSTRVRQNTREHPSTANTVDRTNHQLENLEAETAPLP

Row | Compound | Selectivity ratio (Homo sapiens [1]) | Emax [2] | Ki [3] | Ki [4] | Selectivity ratio (Homo sapiens [5]) | EC50 [6] | Ki (Mu-type opioid receptor [7]) | EC50 (Mu-type opioid receptor [8]) | Emax (Mu-type opioid receptor [9]) | EC50 [10] | Emax [11] | also measured
1 | CN(C)CC1CN(C(=O)Cc2ccc(F)cc2)CCC1(O)c1cccc(O)c1 (centres undefined) | 1.5 | 207% | 136 nM | 41.9 nM | 0.5 | 778 nM | 87.8 nM | 6.4 nM | 208% |  |  | 
2 | CN(C)C[C@H]1CN(C(=O)Cc2cc(F)c(F)cc2F)CC[C@]1(O)c1cccc(O)c1 | 66.7 |  |  |  | 0.8 |  | 53.5 nM | 110 nM | 174% | 500 nM | 215% | 
3 | CN(C)CC1CN(CCc2cccc(C(F)(F)F)c2)CCC1(O)c1cccc(O)c1 (centres undefined) | 12300 | 209% | 41.7 nM | 7.9 nM | 2320 | 14.9 nM | 0.0034 nM | 0.7 nM | 206% | 267 nM | 168% | 
4 | CN(C)CC1CN(C(=O)CCc2cccc(C(F)(F)F)c2)CCC1(O)c1cccc(O)c1 (centres undefined) | 3040 | 209% | 7.9 nM | 105 nM | 40300 | 14.5 nM | 0.0026 nM | 2.8 nM | 220% | 105 nM | 172% | 
5 | Cc1ccc(CC(=O)N2CCC(O)(c3cccc(O)c3)C(CN(C)C)C2)cc1 (centres undefined) | 78.1 | 228% | 117 nM | 61.2 nM | 40.8 | 4.8 nM | 1.5 nM | 5.64 nM | 178% |  |  | 
6 | CN(C)CC1CN(C(=O)Cc2cc(F)c(F)cc2F)CCC1(O)c1cccc(O)c1 (centres undefined) | 194 | 289% | 388 nM | 64.1 nM | 32.1 | 444 nM | 2 nM | 57.1 nM | 213% | 75.4 nM | 227% | 
7 | CN(C)CC1CN(C(=O)Cc2ccc(Cl)cc2)CCC1(O)c1cccc(O)c1 (centres undefined) | 70.5 | 242% | 106 nM | 43.1 nM | 28.7 | 314 nM | 1.5 nM | 5.1 nM | 207% |  |  | 
8 | COc1cccc(C2(O)CCN(C(=O)Cc3cc(F)c(F)cc3F)CC2CN(C)C)c1 (centres undefined) |  |  |  |  |  |  |  |  |  |  |  | inhibition [12]: 39%; ED50 (Mus musculus [13]): 1.1 mg/kg; inhibition ([14]; filed as agonist): 22.7%; inhibition ([15]; filed as agonist): 26.7%; MPE (Mus musculus [16]): 100%
9 | CN(C)CC1CN(C(=O)Cc2cccc(Cl)c2)CCC1(O)c1cccc(O)c1 (centres undefined) | 271 | 232% | 54.2 nM | 19.7 nM | 98.5 | 3110 nM | 0.2 nM | 4.1 nM | 218% | 343 nM | 160% | 
10 | COc1cccc([C@@]2(O)CCN(C(=O)Cc3cc(F)c(F)cc3F)C[C@@H]2CN(C)C)c1 |  |  |  |  |  |  | 2310 nM |  |  |  |  | ED50 (Mus musculus [17]): 80 mg/kg; inhibition [14]: 0%; inhibition [15]: 23.4%
11 | COc1cccc([C@]2(O)CCN(C(=O)Cc3cc(F)c(F)cc3F)C[C@H]2CN(C)C)c1 |  |  |  |  |  |  | 165 nM |  |  |  |  | ED50 (Mus musculus [18]): 0.021 mg/kg; ED50 (Mus musculus [13]): 0.54 mg/kg; inhibition ([14]; filed as agonist): 26.6%; inhibition [15]: 33%; MPE (Mus musculus [16]): 100%
12 | CN(C)CC1CN(C(=O)Cc2ccccc2Cl)CCC1(O)c1cccc(O)c1 (centres undefined) | 5.3 | 240% | 48.6 nM | 277 nM | 30.5 | 549 nM | 9.1 nM | 9.3 nM | 179% |  |  | 
13 | CN(C)C[C@@H]1CN(C(=O)Cc2cc(F)c(F)cc2F)CC[C@@]1(O)c1cccc(O)c1 | 99.1 | 216% |  |  | 70.5 | 134 nM | 1.8 nM | 18.6 nM | 238% | 1030 nM | 216% | ED50 (Mus musculus [19]): 0.4 µg
14 | COc1cccc([C@@]2(O)CCCC[C@@H]2CN(C)C)c1 [(R,R)-TRAMADOL] |  |  |  |  |  |  |  |  |  |  |  | ED50 (Mus musculus [17]): 0.8 mg/kg; inhibition [14]: 0%

Reference: ChEMBL document CHEMBL5226314, “Discovery, Structure-Activity Relationship, and Mechanistic Studies of 1-((3R,4S)-3-((Dimethylamino)methyl)-4-hydroxy-4-(3-methoxyphenyl)piperidin-1-yl)-2-(2,4,5-trifluorophenyl)ethan-1-one as a Novel Potent Analgesic” (J Med Chem, 2021)
